Experimental data from PubChem BioAssay (NCI).
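Protocol summary: plate cells (96-well), add compound at 5 concentrations, incubate 48 h, interpolate endpoints linearly. Abbreviation: GI50, concentration required for 50% inhibition of growth. TGI: total growth inhibition.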

Assays:
Experiment in all cases: NCI tumour cell line growth inhibition, 48 h
[1] = test system: 786-0 renal
[2] = test system: A498 renal
[3] = test system: A549 NSCLC
[4] = test system: ACHN renal
[5] = test system: BT-549 breast
[6] = test system: CAKI-1 renal
[7] = test system: CCRF-CEM leukemia
[8] = test system: COLO 205 colon
[9] = test system: DU-145 prostate
[10] = test system: EKVX NSCLC
[11] = test system: HCC-2998 colon
[12] = test system: HCT-116 colon
[13] = test system: HCT-15 colon
[14] = test system: HL-60(TB) leukemia
[15] = test system: HOP-62 NSCLC
[16] = test system: HOP-92 NSCLC
[17] = test system: HS 578T breast
[18] = test system: HT29 colon
[19] = test system: IGROV1 ovarian
[20] = test system: K-562 leukemia
[21] = test system: KM12 colon
[22] = test system: LOX IMVI melanoma
[23] = test system: M14 melanoma
[24] = test system: MALME-3M melanoma
[25] = test system: MCF7 breast
[26] = test system: MDA-MB-231 breast
[27] = test system: MDA-MB-435
[28] = test system: MOLT-4 leukemia
[29] = test system: NCI-H226 lung
[30] = test system: NCI-H23 lung
[31] = test system: NCI-H460 lung
[32] = test system: NCI-H522 lung
[33] = test system: NCI/ADR-RES ovarian
[34] = test system: OVCAR-3 ovarian
[35] = test system: OVCAR-4 ovarian
[36] = test system: OVCAR-5 ovarian
[37] = test system: OVCAR-8 ovarian
[38] = test system: PC-3 prostate
[39] = test system: RPMI-8226 leukemia
[40] = test system: RXF 393 renal
[41] = test system: SF-268 CNS
[42] = test system: SF-295 CNS
[43] = test system: SF-539 CNS
[44] = test system: SK-MEL-2 melanoma
[45] = test system: SK-MEL-28 melanoma
[46] = test system: SK-MEL-5 melanoma
[47] = test system: SK-OV-3 ovarian
[48] = test system: SN12C renal
[49] = test system: SNB-19 CNS
[50] = test system: SNB-75 CNS
[51] = test system: SR leukemia
[52] = test system: SW-620 colon
[53] = test system: T-47D breast
[54] = test system: TK-10 renal
[55] = test system: U251 CNS
[56] = test system: UACC-257 melanoma
[57] = test system: UACC-62 melanoma
[58] = test system: UO-31 renal

Cc1ccccc1C(C(=O)NC1CCCCC1)N(C(=O)Cn1ccnc1C)c1cccc(F)c1 (stereo unspecified)
GI50 [1]: 37.2 µM | TGI [1]: > 100 µM | GI50 [2]: 27.1 µM | TGI [2]: > 83.9 µM | GI50 [3]: > 100 µM | TGI [3]: > 100 µM | GI50 [4]: > 58.7 µM | TGI [4]: > 100 µM | GI50 [5]: > 52.6 µM | TGI [5]: > 100 µM | GI50 [6]: > 57.4 µM | TGI [6]: > 100 µM | GI50 [7]: > 100 µM | TGI [7]: > 100 µM | GI50 [8]: > 92.1 µM | TGI [8]: > 100 µM | GI50 [9]: > 76.6 µM | TGI [9]: > 100 µM | GI50 [10]: > 100 µM | TGI [10]: > 100 µM | GI50 [11]: > 100 µM | TGI [11]: > 100 µM | GI50 [12]: 46.2 µM | TGI [12]: > 100 µM | GI50 [13]: > 100 µM | TGI [13]: > 100 µM | GI50 [14]: > 100 µM | TGI [14]: > 100 µM | GI50 [15]: > 60.4 µM | TGI [15]: > 100 µM | GI50 [16]: 20 µM | TGI [16]: > 100 µM | GI50 [17]: 28.2 µM | TGI [17]: > 100 µM | GI50 [18]: > 100 µM | TGI [18]: > 100 µM | GI50 [19]: > 77 µM | TGI [19]: > 100 µM | GI50 [20]: > 100 µM | TGI [20]: > 100 µM | GI50 [21]: > 100 µM | TGI [21]: > 100 µM | GI50 [22]: 44 µM | TGI [22]: > 100 µM | GI50 [23]: > 100 µM | TGI [23]: > 100 µM | GI50 [24]: > 52.8 µM | TGI [24]: > 100 µM | GI50 [25]: > 74 µM | TGI [25]: > 100 µM | GI50 [26]: 35.8 µM | TGI [26]: > 100 µM | GI50 [27]: > 100 µM | TGI [27]: > 100 µM | GI50 [28]: > 100 µM | TGI [28]: > 100 µM | GI50 [29]: > 87.4 µM | TGI [29]: > 100 µM | GI50 [30]: > 58 µM | TGI [30]: > 100 µM | GI50 [31]: > 100 µM | TGI [31]: > 100 µM | GI50 [32]: > 100 µM | TGI [32]: > 100 µM | GI50 [33]: > 100 µM | TGI [33]: > 100 µM | GI50 [34]: > 69.5 µM | TGI [34]: > 100 µM | GI50 [35]: > 76.7 µM | TGI [35]: > 100 µM | GI50 [36]: > 100 µM | TGI [36]: > 100 µM | GI50 [37]: > 82.6 µM | TGI [37]: > 100 µM | GI50 [38]: > 100 µM | TGI [38]: > 100 µM | GI50 [39]: > 100 µM | TGI [39]: > 100 µM | GI50 [40]: 7.5 µM | TGI [40]: 40.5 µM | GI50 [41]: > 66.5 µM | TGI [41]: > 100 µM | GI50 [42]: 28.8 µM | TGI [42]: > 65.6 µM | GI50 [43]: 33.1 µM | TGI [43]: > 66.5 µM | GI50 [44]: 21.3 µM | TGI [44]: 79.3 µM | GI50 [45]: > 100 µM | TGI [45]: > 100 µM | GI50 [46]: > 100 µM | TGI [46]: > 100 µM | GI50 [47]: > 65.4 µM | TGI [47]: > 100 µM | GI50 [48]: > 53.4 µM | TGI [48]: > 100 µM | GI50 [49]: 57 µM | TGI [49]: > 100 µM | GI50 [50]: 15.6 µM | TGI [50]: 59.1 µM | GI50 [51]: > 100 µM | TGI [51]: > 100 µM | GI50 [52]: > 100 µM | TGI [52]: > 100 µM | GI50 [53]: > 58.4 µM | TGI [53]: > 100 µM | GI50 [54]: 27.5 µM | TGI [54]: 71.7 µM | GI50 [55]: > 52.1 µM | TGI [55]: > 100 µM | GI50 [56]: > 100 µM | TGI [56]: > 100 µM | GI50 [57]: 59.3 µM | TGI [57]: > 100 µM | GI50 [58]: > 51.6 µM | TGI [58]: > 100 µM
